Tests used:
granzyme-B (GZM-B) = assay: GZM-B expression in primary NK cells (immunoblotting); format: cell-based, human; conditions: primary NK cells #1, #2, pomalidomide 0.3-1 μM, 24 h
Experimental: (A) KHYG1 cells were cultured with pomalidomide (0.25-1 μM) for 24 h. (B) Isolated primary NK cells from healthy volunteers (#1, #2) were cultured with pomalidomide (0.3-1 μM) for 24 h. (C) KHYG-1 cells were transfected with Scsi or Zap-70si. After 48 h, cells were cultured for 24 h in the absence or presence (0.5 μM) of pomalidomide. Whole cell lysates and RNAs were subjected to immunoblotting using indicated Abs.

Zap-70 [1] = biological target: T1, Zap-70 (Homo sapiens, UniProt P43403); assay: Immunoblotting of p-Zap-70 in Jurkat cells; format: cell-based; conditions: 16 h
T1 sequence (P43403 1-619): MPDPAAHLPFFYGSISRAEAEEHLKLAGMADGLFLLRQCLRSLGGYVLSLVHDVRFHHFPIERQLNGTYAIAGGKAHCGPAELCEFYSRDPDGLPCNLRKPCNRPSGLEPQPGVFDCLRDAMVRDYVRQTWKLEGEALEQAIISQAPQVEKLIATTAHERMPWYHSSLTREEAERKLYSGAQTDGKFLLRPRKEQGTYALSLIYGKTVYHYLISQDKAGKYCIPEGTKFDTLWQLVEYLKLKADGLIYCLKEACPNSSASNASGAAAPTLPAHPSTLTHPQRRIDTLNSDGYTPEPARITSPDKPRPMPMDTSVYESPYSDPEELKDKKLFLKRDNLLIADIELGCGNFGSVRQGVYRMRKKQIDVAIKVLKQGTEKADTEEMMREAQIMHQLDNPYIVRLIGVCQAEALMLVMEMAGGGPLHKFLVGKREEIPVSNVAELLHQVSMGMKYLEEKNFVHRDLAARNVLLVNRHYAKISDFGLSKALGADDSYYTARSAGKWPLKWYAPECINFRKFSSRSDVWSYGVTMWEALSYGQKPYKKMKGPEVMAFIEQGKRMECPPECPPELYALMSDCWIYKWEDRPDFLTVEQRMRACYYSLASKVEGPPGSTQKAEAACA
Experimental: (§1) (A) PBMCs were cultured with pomalidomide (“Pom”) (0.01-1 μM) for 16 h. […] (B) PBMCs were cultured with pomalidomide (0.1 and 1 μM) for the indicated time periods. (C) PBMCs were cultured with lenalidomide (“Len”) (1 μM) for 16 h. (D) Primary T-cells from healthy volunteer were cultured with pomalidomide (0.25-1 μM) for 16 h. (E) Jurkat cells were cultured with pomalidomide (0.5 and 1 μM) for 16 h. Whole cell lysates were subjected to immunoblotting (A-E) using indicated Abs. (F) Jurkat cells were cultured with pomalidomide (0.01-1 μM) or lenalidomide (0.01-1 μM) for 72 h. Cell growth was assessed by MTT assay.
(A) Jurkat cells were transfected with scrambled siRNA (Scsi) or CRBN siRNA (CRBNsi). Whole cell lysates were subjected to immunoblotting using indicated Abs. (B) Jurkat cells transfected with Scsi or CRBNsi were cultured with pomalidomide (1 μM) for 16 h. Whole cell lysates were subjected to immunoblotting using indicated Abs. (C) Jurkat cells were transfected with Scsi or Zap-70 siRNA (Zap-70si) (left panel). The transfectants were further cultured for 72 h, and cell growth was assessed by MTT assay (right panel).

Zap-70 [2] = biological target: T1, Zap-70; assay: Immunoblotting of p-Zap-70 and p-LAT in primary T-cells from healthy volunteer; format: cell-based; set-up: endogenous in cells; host or cells: primary PBMCs, primary T cells and primary NK cells from healthy volunteers; conditions: pomalidomide 0.25-1 μM, 16 h
Experimental: as §1

U266 cells = assay: NK-92 NK cell activity against calcein-AM-stained U266 cells; format: cell-based; conditions: NK-92 cells, 48 h; Pom 0.5 and 1 μM; CC-220 0.1 and 1 μM, E/T 2.5/1
Experimental: (A) NK-92 cells were cultured with Pom (0.5 and 1 μM) for 24 h. Whole cell lysates were subjected to immunoblotting using indicated Abs. (B) NK-92 cells were cultured with Pom (0.5 and 1 μM) for 48 h. The cells were subsequently incubated with calcein-AM-stained U266 cells for 4 h at the indicated effector/target (E/T) ratios. Percent specific lysis was calculated as described previously. (C) NK-92 cells were cultured with Pom (0.03-3 μM) for 72 h. Cell growth was assessed by MTT assay. (D) NK-92 cells were transfected with scrambled (Sc) or Zap-70 siRNA (Zap70si). After 72 h incubation, cell viability was measured by trypan-blue dye exclusion. For B, C, and D, data are representative of at least two independent experiments, and values are expressed in mean±SD.
(A) NK-92 cells were cultured with Len (1 μM), Pom (0.01, 0.1, 1 μM) or CC-220 (0.01, 0.1, 1 μM) for 24 h. Whole cell lysates were subjected to immunoblotting using indicated Abs. (B) NK-92 cells were cultured with Pom (0.1 and 1 μM) or CC-220 ([…]) for 48 h. NK cell activity was measured by incubation with calcein AM-labeled U266 cells for 4 h at E/T ratio of 2.5/1. Percent specific lysis was calculated as previously described. Data are representative of three independent experiments, and values are expressed in mean±SD. *: p<0.01.

Zap-70 [3] = biological target: T1, Zap-70; assay: Pomalidomide-beads pull-down from Jurkat whole cell lysates; format: binding; set-up: purchased Origene, Rockville, MD; conditions: competitor 1 mM free pomalidomide, 1 h
Experimental: (A) Jurkat cells were transfected with scrambled (Sc) siRNA or Zap-70 siRNA. Whole cell lysates were subjected to immunoblotting using indicated Abs. (B) Jurkat cells were treated with lenalidomide ([…]) or pomalidomide (1 and 3 μM) for 4 h and 8 h. Whole cell lysates were subjected to p-Zap ELISA assay. (C) Jurkat whole cell lysates were incubated with pomalidomide-beads in the presence or absence of competitor (1 mM free pomalidomide) for 1 h. After elution, samples were subjected to immunoblotting using anti-Zap-70 Ab. (D) Saturation-transfer difference resulting from the binding of pomalidomide to Zap-70. Pomalidomide is at 320 μM and Zap-70 is approximately 2 μM in deuterated PBS solution. […] (E) Saturation-transfer difference resulting from the binding of pomalidomide to Zap-70 in the presence of 2.56 mMATP. Pomalidomide is at 320 μM and Zap-70 is approximately 2 μM in deuterated PBS solution. […] Note that both ATP and pomalidomide show binding the Zap-70. (F) Non-cell based Zap-70 kinase assay was carried out, according to manufacturer's protocol.

## Nc1cccc2c1C(=O)N(C1CCC(=O)NC1=O)C2=O (stereo not shown) [pomalidomide]
granzyme-B (GZM-B)
  GZM-B expression: upregulated GZM-B expression
Zap-70 [1]; CRBN siRNA, pomalidomide 1 μM
  p-Zap-70 induced by pomalidomide in CRBN-knockdown versus control Sc KD cells: No significant change
Zap-70 [1]; pomalidomide 0.5 and 1 μM
  p-Zap-70 (immunoblotting): similarly induced p-Zap-70 in Jurkat cells in a dose-dependent fashion
Zap-70 [2]
  p-LAT (immunoblotting): induced p-Zap-70 and p-LAT in primary T cells
  p-Zap-70 (immunoblotting): induced p-Zap-70 and p-LAT in primary T cells
U266 cells
  NK cell activity against U266 cells (percent specific lysis): upregulated NK activity
Zap-70 [3]
  competition of Zap-70 pull-down by Pom-beads: inhibited by free pomalidomide

— patent US20240216354A1, “IMMUNOMODULATORY IMIDE DRUGS AS ZETA-CHAIN-ASSOCIATED PROTEIN KINASE 70 (ZAP70) AGONISTS AND USES THEREOF” (Dana-Farber Cancer Institute, Inc., priority 2019, published 2024)
